Experiment: Metabolic stability in rat liver microsomes assessed as half life
Format: ADME, Microsome

SMILES: CNc1nc(NCc2ccc(NC(=O)c3ccc(F)cc3)cc2)c2cc(C)ccc2n1
- half-life: 6 min

SMILES: Cc1ccc2c(NCc3ccc(NC(=O)c4ccc(F)cc4)cc3)nc(N3CCCCC3)nc2c1
- half-life: 3 min

SMILES: CC(=O)c1ccc2c(NCc3ccc(NC(=O)c4ccc(F)cc4)cc3)nc(N(C)C)nc2c1
- half-life: 2 min

SMILES: CNc1nc(NCc2ccc(NC(=O)c3ccc(C)cc3)cc2)c2ccccc2n1
- half-life: 16 min

SMILES: Cc1ccc2c(NCc3ccc(NC(=O)c4ccc(F)cc4)cc3)nc(N3CCN(C)CC3)nc2c1
- half-life: 3 min

SMILES: Cc1ccc2c(NCc3ccc(NC(=O)c4ccc(F)cc4)cc3)nc(N(C)C)nc2c1
- half-life: 12 min

SMILES: Cc1ccc2c(NCc3ccc(NC(=O)c4ccc(F)cc4)cc3)nc(N3CCNCC3)nc2c1
- half-life: 5 min

SMILES: CNc1nc(NCc2ccc(NC(=O)c3ccc(Cl)cc3)cc2)c2cc(C)ccc2n1
- half-life: 6 min

SMILES: Cc1ccc2c(NCc3ccc(NC(=O)c4ccc(F)cc4)cc3)nc(N3CCOCC3)nc2c1
- half-life: 6 min

SMILES: Cc1ccc2c(NCc3ccc(NC(=O)c4ccc(F)cc4)cc3)nc(N3CCC3)nc2c1
- half-life: 7 min

SMILES: Cc1ccc2c(NCc3ccc(NC(=O)c4ccc(F)cc4)cc3)nc(N3CCCC3)nc2c1
- half-life: 2 min

SMILES: CN(C)c1nc(NCc2ccc(NC(=O)c3ccc(F)cc3)cc2)c2ccc(CO)cc2n1
- half-life: 22 min

SMILES: CN(C)Cc1ccc2c(NCc3ccc(NC(=O)c4ccc(F)cc4)cc3)nc(N(C)C)nc2c1
- half-life: 3 min

SMILES: CNc1nc(NCc2ccc(NC(=O)c3ccc(F)cc3)cc2)c2ccccc2n1
- half-life: 21 min

SMILES: CNc1nc(NCc2ccc(NC(=O)c3ccc(Cl)nc3)cc2)c2ccccc2n1
- half-life: 17 min

SMILES: C=Cc1ccc2c(NCc3ccc(NC(=O)c4ccc(F)cc4)cc3)nc(N(C)C)nc2c1
- half-life: 6 min

SMILES: CCc1ccc2c(NCc3ccc(NC(=O)c4ccc(F)cc4)cc3)nc(N(C)C)nc2c1
- half-life: 6 min

SMILES: CNc1nc(NCc2ccc(NC(=O)c3ccc(Cl)nc3)cc2)c2cc(C)ccc2n1
- half-life: 13 min

SMILES: CNc1nc(NCc2ccc(NC(=O)c3ccc(Cl)cc3)cc2)c2c(C)cccc2n1
- half-life: 12 min

SMILES: CNc1nc(NCc2ccc(NC(=O)c3ccc(Cl)nc3)cc2)c2c(C)cccc2n1
- half-life: 2 min

SMILES: Cc1ccc2c(NCc3ccc(NC(=O)c4ccc(F)cc4)cc3)nc(N3CCNC(C)(C)C3)nc2c1
- half-life: 3 min

SMILES: CNc1nc(NCc2ccc(NC(=O)c3ccc(Cl)cc3)cc2)c2cccc(C)c2n1
- half-life: 11 min

SMILES: Cc1ccc2c(NCc3ccc(NC(=O)c4ccc(F)cc4)cc3)nc(N3CCN[C@H](C)C3)nc2c1
- half-life: 4 min

SMILES: CNc1nc(NCc2ccc(NC(=O)c3ccc(C(F)(F)F)cc3)cc2)c2ccccc2n1
- half-life: 30 min

SMILES: CNc1nc(NCc2ccc(NC(=O)c3cccc(Cl)c3)cc2)c2ccccc2n1
- half-life: 15 min

SMILES: CNc1nc(NCc2ccc(NC(=O)c3ccc(F)cc3)cc2)c2cccc(C)c2n1
- half-life: 10 min

SMILES: CCCNc1nc(NCc2ccc(NC(=O)c3ccc(F)cc3)cc2)c2ccc(C)cc2n1
- half-life: 6 min

SMILES: CNc1nc(NCc2ccc(NC(=O)c3ccc(Cl)cc3)cc2)c2ccccc2n1
- half-life: 30 min

SMILES: CNc1nc(NCc2ccc(NC(=O)c3ccc(C#N)cc3)cc2)c2ccccc2n1
- half-life: 10 min

SMILES: CNc1nc(NCc2ccc(NC(=O)c3ccc(Cl)nc3)cc2)c2cccc(C)c2n1
- half-life: 22 min

SMILES: CNc1nc(NCc2ccc(NC(=O)c3ccc(Cl)cc3)cc2)c2ccc(C)cc2n1
- half-life: 18 min

SMILES: CNc1nc(NCc2ccc(NC(=O)c3ccc(-c4ccccc4)cc3)cc2)c2ccccc2n1
- half-life: 16 min

SMILES: CNc1nc(NCc2ccc(NC(=O)c3ccc(F)cc3)cc2)c2ccc(C)cc2n1
- half-life: > 30 min

SMILES: CNc1nc(NCc2ccc(NC(=O)c3ccc(Cl)nc3)cc2)c2ccc(C)cc2n1
- half-life: 8 min

SMILES: CN(C)c1nc(NCc2ccc(NC(=O)c3ccc(F)cc3)cc2)c2ccc(C#N)cc2n1
- half-life: 11 min

SMILES: CN(C)c1nc(NCc2ccc(NC(=O)c3ccc(F)cc3)cc2)c2ccc(C=O)cc2n1
- half-life: 3 min

SMILES: CNc1nc(NCc2ccc(NC(=O)c3ccc(F)cc3)cc2)c2c(C)cccc2n1
- half-life: 15 min

SMILES: CC(O)c1ccc2c(NCc3ccc(NC(=O)c4ccc(F)cc4)cc3)nc(N(C)C)nc2c1 (racemic)
- half-life: 6 min

Reference: ChEMBL document CHEMBL1156802, “Design and synthesis of novel diaminoquinazolines with in vivo efficacy for beta-catenin/T-cell transcriptional factor 4 pathway inhibition” (J Med Chem, 2010)
